Test results published in patent EP4424307A1, “PROTECTIVE AGENT FOR USE IN PERITONEAL DIALYSIS” (Zytoprotec GmbH, priority 2023, dated 2024).
Peptide text beside a SMILES is read from it.

Legend:
[1] = tested on: systemic inflammation; conditions: addition to PDF in PD patients; tendency for hs-CRP and IL-6, statistical significance with IL-8; cited from earlier work
[2] = tested on: acute-phase-response- and inflammation-associated proteins within the liver; assay: Murine chronic PD exposure model, mass spectrometry proteomics analysis of liver; assay type: in vivo, mice; conditions: liver of uremic animals receiving PD; of 57 proteins dysregulated by PD; p<0.05
Description: (§1) The inventors conducted a murine PD exposure experiment resembling chronic PD in healthy and uremic mice: The experiment consisted of n=34 animals in six distinct groups.
(§2) The animals were split in the following groups: • 1) Healthy control animals ("control") • 2) Healthy animals receiving PD treatment (via an indwelling catheter) ("PD") • 3) Healthy animals receiving PD treatment (via an indwelling catheter) supplemented with Alanyl-Glutamine ("PD+AG") • 4) Uremic animals ("uremic") • 5) Uremic animals receiving PD treatment (via an indwelling catheter) ("uremic PD") • 6) Uremic animals receiving PD treatment (via an indwelling catheter) supplemented with Alanyl-Glutamine ("uremic PD+AG")
(§3) All animals of the uremic groups (Groups 4, 5, and 6) were subjected to left-sided 2/3 nephrectomy at day 0 of the study, and to complete right-sided nephrectomy at day 7 of the study, thereby inducing chronic kidney disease.
(§4) All animals receiving PD treatment (Groups 2, 3, 5, and 6) had their indwelling catheter implanted at day 7 of the study.
Animals in groups 2,3, 5, and 6 received daily PDF (Dianeal PD4 3.86% [Baxter, Deerfield, IL, USA]) injections via their indwelling catheter starting from day 14 over the course of six weeks, thereby inducing chronic PDF exposure. […]

[3] = tested on: PD induced hepatic inflammatory response; assay: Murine chronic PD exposure model, liver histology (NAS, Oil Red O, Sirius Red); assay type: in vivo; conditions: uremic mice with PD, PDF supplemented with Alanyl-Glutamine 8 mM
Description: as §1, §2, §3, §4
Animals in groups 2,3, 5, and 6 received daily PDF (Dianeal PD4 3.86% [Baxter, Deerfield, IL, USA]) injections via their indwelling catheter starting from day 14 over the course of six weeks, thereby inducing chronic PDF exposure.
For animals of groups 3 and 6 the daily PDF injections were supplemented with Alanyl-Glutamine (8 mM) over the course of six weeks.
At sacrifice (day 56 of the study), animal livers were subjected to histologic analysis.
NAFLD activity score (NAS) assessment was conducted as previously described (47) on hematoxylin & eosin (H&E) stained hepatic tissue on one facial field image per mouse.
Steatosis hepatis was assessed by semi-quantitative measurement of Oil Red O stained hepatic tissue with one facial field image per mouse.
Fibrosis hepatis was assessed by semi-quantitative measurement of Sirius Red stained hepatic tissue with one facial field image per mouse.

[4] = tested on: hepatic reperfusion-injury; conditions: rat model; cited from earlier work
[5] = tested on: steatohepatitis and fibrosis; conditions: murine NAFLD model; cited from earlier work
[6] = tested on: LPS-induced acute liver injury; conditions: mice; cited from earlier work
[7] = tested on: clinical markers of liver injury; assay: Secondary analysis of phase II crossover trial of Alanyl-Glutamine supplementation to PDF, liver tests; assay type: in vivo, human; conditions: patients on chronic PD, n=41, crossover
Description: To further investigate the effect of Alanyl-Glutamine supplementation to PDF in human PD-induced hepatic (dys)function, the inventors conducted a secondary analysis of a prospective, multicenter, double-blinded, controlled, randomized, dual-period, 2-treatment, crossover, phase II, proof-of-concept study including eight Austrian centers for Alanyl-Glutamine supplementation to the PDF in patients on chronic PD.
This study cohort and its baseline characteristics have already been previously described by Vychytil et al (8).

[8] = H&E liver sections, daily over six weeks, vs uremic PD
[9] = log10 transformed due to skewness

## C[C@H](N)C(=O)N[C@@H](CCC(N)=O)C(=O)O [Alanyl-Glutamine, L-alanyl-L-glutamine] (H-Ala-Gln-OH)
[1]
  systemic inflammation (hs-CRP, IL-6, IL-8): attenuate systemic inflammation
[2]
  number of acute-phase-response- and inflammation-associated proteins with significantly altered abundance: 11
[3]; [8]
  areas of hepatocyte ballooning: decreased
  numbers of inflammatory immune cell infiltrates: markedly decreased
[3]; liver sections
  PD induced fibrosis (% area of Sirius Red stained tissue): trends of improvement
  PD induced steatosis (% area of Oil Red O stained tissue): trends of improvement
[3]; daily over six weeks, vs uremic PD, Mann Whitney U test
  NAFLD activity score (NAS): significantly (p<0.05) decreased
[4]
  hepatic reperfusion-injury: reduce hepatic reperfusion-injury
[5]
  steatohepatitis and fibrosis: significantly attenuate steatohepatitis and fibrosis
[6]
  LPS-induced acute liver injury: protect mice against LPS-induced acute liver injury
[7]; [9]
  GGT, Least squares mean (95% CI): 1.41 (1.37 to 1.46) U/L
  GOT/AST, Least squares mean (95% CI): 1.23 (1.19 to 1.27) U/L
  GPT/ALT, Least squares mean (95% CI): 1.20 (1.15 to 1.25) U/L
  LDH, Least squares mean (95% CI): 2.30 (2.27 to 2.32) U/L
[7]; log10 transformed, p value 0.0206
  LDH, Difference Alanyl-Glutamine-placebo, estimate ± SE: -0.03 ± 0.01 U/L
[7]; log10 transformed, p value 0.0466
  GPT/ALT, Difference Alanyl-Glutamine-placebo, estimate ± SE: -0.06 ± 0.03 U/L
[7]; log10 transformed, p value 0.1877
  GOT/AST, Difference Alanyl-Glutamine-placebo, estimate ± SE: -0.04 ± 0.03 U/L
[7]; log10 transformed, p value 0.4901
  GGT, Difference Alanyl-Glutamine-placebo, estimate ± SE: -0.02 ± 0.02 U/L
